In ChEMBL document CHEMBL1649226, “Species identification and antifungal susceptibility patterns of species belonging to Aspergillus section Nigri” (2009):
In brackets after ≈: the same amount, converted by molar mass.

How the values were obtained:
Format in all cases: functional
Aspergillus niger [1] = assay: Antifungal activity against Aspergillus niger isolate CM-3257 obtained from respiratory tract infection of patient after 48 hrs by EUCAST broth dilution method; conditions: isolate CM-3257, 48 h
Aspergillus tubingensis [2] = assay: Antifungal activity against Aspergillus tubingensis isolate CM-4001 after 48 hrs by EUCAST broth dilution method; conditions: isolate CM-4001, 48 h
Aspergillus tubingensis [3] = assay: Antifungal activity against Aspergillus tubingensis isolate CM-4003 after 48 hrs by EUCAST broth dilution method; conditions: isolate CM-4003, 48 h
Aspergillus tubingensis [4] = assay: Antifungal activity against Aspergillus tubingensis isolate CM-4688 obtained from respiratory tract infection of patient after 48 hrs by EUCAST broth dilution method; conditions: isolate CM-4688, 48 h
Aspergillus niger [5] = assay: Antifungal activity against Aspergillus niger isolate CM-3586 obtained from catheter of patient after 48 hrs by EUCAST broth dilution method; conditions: isolate CM-3586, 48 h
Aspergillus tubingensis [6] = assay: Antifungal activity against Aspergillus tubingensis isolate CM-3125 obtained from respiratory tract infection of patient after 48 hrs by EUCAST broth dilution method; conditions: isolate CM-3125, 48 h
Aspergillus tubingensis [7] = assay: Antifungal activity against Aspergillus tubingensis isolate CM-3654 obtained from blood culture after 48 hrs by EUCAST broth dilution method; conditions: isolate CM-3654, 48 h
Aspergillus niger [8] = assay: Antifungal activity against Aspergillus niger isolate CM-3236 obtained from respiratory tract infection of patient after 48 hrs by EUCAST broth dilution method; conditions: isolate CM-3236, 48 h
Aspergillus niger [9] = assay: Antifungal activity against Aspergillus niger isolate CM-4316 obtained from respiratory tract infection of patient after 48 hrs by EUCAST broth dilution method; conditions: isolate CM-4316, 48 h
Aspergillus tubingensis [10] = assay: Antifungal activity against Aspergillus tubingensis isolate CM-4899 obtained from respiratory tract infection of patient after 48 hrs by EUCAST broth dilution method; conditions: isolate CM-4899, 48 h
Aspergillus tubingensis [11] = assay: Antifungal activity against Aspergillus tubingensis isolate CM-3123 obtained from respiratory tract infection of patient after 48 hrs by EUCAST broth dilution method; conditions: isolate CM-3123, 48 h
Aspergillus tubingensis [12] = assay: Antifungal activity against Aspergillus tubingensis isolate CM-4897 obtained from blood culture after 48 hrs by EUCAST broth dilution method; conditions: isolate CM-4897, 48 h
Aspergillus niger [13] = assay: Antifungal activity against Aspergillus niger isolate CM-3641 obtained from respiratory tract infection of patient after 48 hrs by EUCAST broth dilution method; conditions: isolate CM-3641, 48 h
Aspergillus tubingensis [14] = assay: Antifungal activity against Aspergillus tubingensis isolate CM-3585 after 48 hrs by EUCAST broth dilution method; conditions: isolate CM-3585, 48 h
Aspergillus tubingensis [15] = assay: Antifungal activity against Aspergillus tubingensis isolate CM-4005 after 48 hrs by EUCAST broth dilution method; conditions: isolate CM-4005, 48 h
Aspergillus foetidus [16] = assay: Antifungal activity against Aspergillus foetidus isolate CM-5264 obtained from respiratory tract infection of patient after 48 hrs by EUCAST broth dilution method; conditions: isolate CM-5264, 48 h
Aspergillus niger [17] = assay: Antifungal activity against Aspergillus niger isolate CM-3636 obtained from respiratory tract infection of patient after 48 hrs by EUCAST broth dilution method; conditions: isolate CM-3636, 48 h
Aspergillus niger [18] = assay: Antifungal activity against Aspergillus niger isolate CM-3506 obtained from respiratory tract infection of patient after 48 hrs by EUCAST broth dilution method; conditions: isolate CM-3506, 48 h
Aspergillus niger [19] = assay: Antifungal activity against Aspergillus niger isolate CM-5095 obtained from respiratory tract infection of patient after 48 hrs by EUCAST broth dilution method; conditions: isolate CM-5095, 48 h
Aspergillus foetidus [20] = assay: Antifungal activity against Aspergillus foetidus isolate CM-4002 after 48 hrs by EUCAST broth dilution method; conditions: isolate CM-4002, 48 h
Aspergillus tubingensis [21] = assay: Antifungal activity against Aspergillus tubingensis isolate CM-4296 obtained from respiratory tract infection of patient after 48 hrs by EUCAST broth dilution method; conditions: isolate CM-4296, 48 h
Aspergillus niger [22] = assay: Antifungal activity against Aspergillus niger isolate CM-3551 obtained from respiratory tract infection of patient after 48 hrs by EUCAST broth dilution method; conditions: isolate CM-3551, 48 h
Aspergillus tubingensis [23] = assay: Antifungal activity against Aspergillus tubingensis isolate CM-4352 obtained from respiratory tract infection of patient after 48 hrs by EUCAST broth dilution method; conditions: isolate CM-4352, 48 h
Aspergillus tubingensis [24] = assay: Antifungal activity against Aspergillus tubingensis isolate CM-3177 obtained from respiratory tract infection of patient after 48 hrs by EUCAST broth dilution method; conditions: isolate CM-3177, 48 h
Aspergillus tubingensis [25] = assay: Antifungal activity against Aspergillus tubingensis isolate CM-4264 obtained from blood culture after 48 hrs by EUCAST broth dilution method; conditions: isolate CM-4264, 48 h
Aspergillus niger [26] = assay: Antifungal activity against Aspergillus niger isolate CM-4004 obtained from after 48 hrs by EUCAST broth dilution method; conditions: isolate CM-4004, 48 h
Aspergillus tubingensis [27] = assay: Antifungal activity against Aspergillus tubingensis isolate CM-3810 obtained from respiratory tract infection of patient after 48 hrs by EUCAST broth dilution method; conditions: isolate CM-3810, 48 h
Aspergillus niger [28] = assay: Antifungal activity against Aspergillus niger isolate CM-4262 after 48 hrs by EUCAST broth dilution method Ophthalmic; conditions: isolate CM-4262, 48 h
Aspergillus tubingensis [29] = assay: Antifungal activity against Aspergillus tubingensis isolate CM-5094 obtained from respiratory tract infection of patient after 48 hrs by EUCAST broth dilution method; conditions: isolate CM-5094, 48 h
Aspergillus niger [30] = assay: Antifungal activity against Aspergillus niger isolate CM-3672 obtained from cutaneous layer of patient after 48 hrs by EUCAST broth dilution method; conditions: isolate CM-3672, 48 h
Aspergillus niger [31] = assay: Antifungal activity against Aspergillus niger isolate CM-4213 obtained from respiratory tract infection of patient after 48 hrs by EUCAST broth dilution method; conditions: isolate CM-4213, 48 h
Aspergillus tubingensis [32] = assay: Antifungal activity against Aspergillus tubingensis isolate CM-3507 obtained from respiratory tract infection of patient after 48 hrs by EUCAST broth dilution method; conditions: isolate CM-3507, 48 h
Aspergillus tubingensis [33] = assay: Antifungal activity against Aspergillus tubingensis isolate CM-4000 after 48 hrs by EUCAST broth dilution method; conditions: isolate CM-4000, 48 h
Aspergillus foetidus [34] = assay: Antifungal activity against Aspergillus foetidus isolate CM-4995 obtained from prosthesis after 48 hrs by EUCAST broth dilution method; conditions: isolate CM-4995, 48 h

Compound: CN(C/C=C/C#CC(C)(C)C)Cc1cccc2ccccc12 [TERBINAFINE]
- MIC (Aspergillus niger [1]): 1 µg/mL (≈ 3.43 µM)
- MIC (Aspergillus tubingensis [2]): 0.56 µg/mL (≈ 1.92 µM)
- MIC (Aspergillus tubingensis [3]): 1 µg/mL (≈ 3.43 µM)
- MIC (Aspergillus tubingensis [4]): 1.5 µg/mL (≈ 5.15 µM)
- MIC (Aspergillus niger [5]): 0.12 µg/mL (≈ 0.412 µM)
- MIC (Aspergillus tubingensis [6]): 0.5 µg/mL (≈ 1.72 µM)
- MIC (Aspergillus tubingensis [7]): 0.63 µg/mL (≈ 2.16 µM)
- MIC (Aspergillus niger [8]): 1 µg/mL (≈ 3.43 µM)
- MIC (Aspergillus niger [9]): 0.5 µg/mL (≈ 1.72 µM)
- MIC (Aspergillus tubingensis [10]): 0.33 µg/mL (≈ 1.13 µM)
- MIC (Aspergillus tubingensis [11]): 1.17 µg/mL (≈ 4.01 µM)
- MIC (Aspergillus tubingensis [12]): 0.42 µg/mL (≈ 1.44 µM)
- MIC (Aspergillus niger [13]): 0.25 µg/mL (≈ 0.858 µM)
- MIC (Aspergillus tubingensis [14]): 0.42 µg/mL (≈ 1.44 µM)
- MIC (Aspergillus tubingensis [15]): 0.25 µg/mL (≈ 0.858 µM)
- MIC (Aspergillus foetidus [16]): 0.5 µg/mL (≈ 1.72 µM)
- MIC (Aspergillus niger [17]): 1 µg/mL (≈ 3.43 µM)
- MIC (Aspergillus niger [18]): 0.31 µg/mL (≈ 1.06 µM)
- MIC (Aspergillus niger [19]): 0.62 µg/mL (≈ 2.13 µM)
- MIC (Aspergillus foetidus [20]): 0.33 µg/mL (≈ 1.13 µM)
- MIC (Aspergillus tubingensis [21]): 0.62 µg/mL (≈ 2.13 µM)
- MIC (Aspergillus niger [22]): 0.25 µg/mL (≈ 0.858 µM)
- MIC (Aspergillus tubingensis [23]): 0.31 µg/mL (≈ 1.06 µM)
- MIC (Aspergillus tubingensis [24]): 0.67 µg/mL (≈ 2.3 µM)
- MIC (Aspergillus tubingensis [25]): 0.5 µg/mL (≈ 1.72 µM)
- MIC (Aspergillus niger [26]): 0.13 µg/mL (≈ 0.446 µM)
- MIC (Aspergillus tubingensis [27]): 1 µg/mL (≈ 3.43 µM)
- MIC (Aspergillus niger [28]): 0.29 µg/mL (≈ 0.995 µM)
- MIC (Aspergillus tubingensis [29]): 0.62 µg/mL (≈ 2.13 µM)
- MIC (Aspergillus niger [30]): 0.07 µg/mL (≈ 0.24 µM)
- MIC (Aspergillus niger [31]): 0.22 µg/mL (≈ 0.755 µM)
- MIC (Aspergillus tubingensis [32]): 0.62 µg/mL (≈ 2.13 µM)
- MIC (Aspergillus tubingensis [33]): 0.33 µg/mL (≈ 1.13 µM)
- MIC (Aspergillus foetidus [34]): 0.33 µg/mL (≈ 1.13 µM)

Compound: C[C@@H](c1ncncc1F)[C@](O)(Cn1cncn1)c1ccc(F)cc1F [VORICONAZOLE]
- MIC (Aspergillus niger [1]): 1 µg/mL (≈ 2.86 µM)
- MIC (Aspergillus tubingensis [2]): 1.75 µg/mL (≈ 5.01 µM)
- MIC (Aspergillus tubingensis [3]): 2 µg/mL (≈ 5.73 µM)
- MIC (Aspergillus tubingensis [4]): 2 µg/mL (≈ 5.73 µM)
- MIC (Aspergillus niger [5]): 1 µg/mL (≈ 2.86 µM)
- MIC (Aspergillus tubingensis [6]): 1 µg/mL (≈ 2.86 µM)
- MIC (Aspergillus tubingensis [7]): 2 µg/mL (≈ 5.73 µM)
- MIC (Aspergillus niger [8]): 0.5 µg/mL (≈ 1.43 µM)
- MIC (Aspergillus niger [9]): 0.5 µg/mL (≈ 1.43 µM)
- MIC (Aspergillus tubingensis [10]): 2 µg/mL (≈ 5.73 µM)
- MIC (Aspergillus tubingensis [11]): 1.67 µg/mL (≈ 4.78 µM)
- MIC (Aspergillus tubingensis [12]): 2 µg/mL (≈ 5.73 µM)
- MIC (Aspergillus niger [13]): 1 µg/mL (≈ 2.86 µM)
- MIC (Aspergillus tubingensis [14]): 1 µg/mL (≈ 2.86 µM)
- MIC (Aspergillus tubingensis [15]): 2 µg/mL (≈ 5.73 µM)
- MIC (Aspergillus foetidus [16]): 2 µg/mL (≈ 5.73 µM)
- MIC (Aspergillus niger [17]): 0.5 µg/mL (≈ 1.43 µM)
- MIC (Aspergillus niger [18]): 0.75 µg/mL (≈ 2.15 µM)
- MIC (Aspergillus niger [19]): 0.75 µg/mL (≈ 2.15 µM)
- MIC (Aspergillus foetidus [20]): 2 µg/mL (≈ 5.73 µM)
- MIC (Aspergillus tubingensis [21]): 1 µg/mL (≈ 2.86 µM)
- MIC (Aspergillus niger [22]): 1 µg/mL (≈ 2.86 µM)
- MIC (Aspergillus tubingensis [23]): 0.88 µg/mL (≈ 2.52 µM)
- MIC (Aspergillus tubingensis [24]): 2 µg/mL (≈ 5.73 µM)
- MIC (Aspergillus tubingensis [25]): 1 µg/mL (≈ 2.86 µM)
- MIC (Aspergillus niger [26]): 1 µg/mL (≈ 2.86 µM)
- MIC (Aspergillus tubingensis [27]): 2 µg/mL (≈ 5.73 µM)
- MIC (Aspergillus niger [28]): 2 µg/mL (≈ 5.73 µM)
- MIC (Aspergillus tubingensis [29]): 0.75 µg/mL (≈ 2.15 µM)
- MIC (Aspergillus niger [30]): 1 µg/mL (≈ 2.86 µM)
- MIC (Aspergillus niger [31]): 0.33 µg/mL (≈ 0.945 µM)
- MIC (Aspergillus tubingensis [32]): 1 µg/mL (≈ 2.86 µM)
- MIC (Aspergillus tubingensis [33]): 2 µg/mL (≈ 5.73 µM)
- MIC (Aspergillus foetidus [34]): 2 µg/mL (≈ 5.73 µM)
